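All cell lines were grown in 96-well plates and treated with compound for 48 hours. GI50: concentration for 50% inhibition of growth.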 Activity calls are given as the source filed them. No stated cut-off is given here; in the data, active = GI50 up to about 1.1 µM and inactive = higher.
Columns and labels:
Test in all cases: DTP human tumour cell line panel, 48 h
[1] = test system: A498
[2] = test system: DU-145
[3] = test system: HL-60
[4] = test system: HOP-62
[5] = test system: K562
[6] = test system: KM12
[7] = test system: M14
[8] = test system: MDA-MB-231
[9] = test system: MDA-N
[10] = test system: NCI-H23
[11] = test system: NCI-H460
[12] = test system: OVCAR-3
[13] = test system: OVCAR-4
[14] = test system: SF-539
[15] = test system: SK-MEL-28
[16] = test system: SR
[17] = test system: SW-620
[18] = test system: T47D
[19] = test system: TK-10
[20] = test system: MOLT-4

Measured: GI50

N=C(N)NC(=N)Nc1ccc(S(=O)(=O)O)cc1
inactive: [1] > 100 µM | [2] > 100 µM | [3] > 100 µM | [4] > 100 µM | [5] > 100 µM | [6] > 100 µM | [7] > 100 µM | [8] > 100 µM | [9] > 100 µM | [10] > 100 µM | [11] > 100 µM | [12] > 100 µM | [13] > 100 µM | [14] > 100 µM | [15] > 100 µM | [16] > 100 µM | [17] > 100 µM | [18] > 100 µM | [19] > 100 µM

c1cncc(CSc2ncnc3[nH]cnc23)c1
inactive: [1] > 100 µM | [2] > 100 µM | [3] > 100 µM | [4] > 100 µM | [5] > 100 µM | [6] > 100 µM | [7] > 100 µM | [8] > 100 µM | [9] > 100 µM | [20] > 100 µM | [10] > 100 µM | [11] > 100 µM | [12] > 100 µM | [13] > 100 µM | [15] > 100 µM | [16] > 100 µM | [17] > 100 µM | [18] > 100 µM | [19] > 100 µM

COc1c2cc(C(C)(C)C)cc1CSCc1cc(C(C)(C)C)cc(c1OC)CCCCC2
inactive: [1] 38.6 µM | [2] 31.8 µM | [3] > 50 µM | [4] > 50 µM | [5] > 50 µM | [6] > 50 µM | [7] 46.7 µM | [8] 46.8 µM | [9] > 50 µM | [20] 29.6 µM | [10] 36.7 µM | [11] 31.6 µM | [12] 15.1 µM | [14] 19.6 µM | [15] 26.5 µM | [16] > 50 µM | [17] > 50 µM | [18] 30 µM | [19] 31.9 µM

CCOP(=O)(CC1CC(O)(CNc2cc(Cl)nc(N)n2)C1)OCC (centres undefined)
inactive: [1] > 100 µM | [2] > 100 µM | [3] > 100 µM | [4] > 100 µM | [5] > 100 µM | [6] > 100 µM | [8] > 100 µM | [9] > 100 µM | [20] > 100 µM | [10] > 100 µM | [11] > 100 µM | [12] > 100 µM | [13] > 100 µM | [14] > 100 µM | [15] > 100 µM | [16] > 100 µM | [17] > 100 µM | [18] 98.9 µM | [19] > 100 µM

Cc1c(C)c(C)c(-n2[nH]c(=O)n(C)c2=O)c(C)c1C
inactive: [1] > 100 µM | [2] > 100 µM | [3] > 100 µM | [4] > 100 µM | [5] > 100 µM | [6] > 100 µM | [7] > 100 µM | [8] > 100 µM | [9] > 100 µM | [20] > 100 µM | [10] > 100 µM | [11] > 100 µM | [12] > 100 µM | [14] > 100 µM | [15] > 100 µM | [16] > 100 µM | [17] > 100 µM | [18] > 100 µM | [19] > 100 µM

O=c1c2cc([N+](=O)[O-])ccc2oc2nc3n(c(=O)c12)CCCS3
inactive: [1] > 100 µM | [2] > 100 µM | [4] 40.9 µM | [5] > 100 µM | [6] > 100 µM | [7] > 100 µM | [8] > 100 µM | [9] > 100 µM | [20] > 100 µM | [10] > 100 µM | [11] > 100 µM | [12] > 100 µM | [13] > 100 µM | [14] > 100 µM | [15] > 100 µM | [16] > 100 µM | [17] > 100 µM | [18] > 100 µM | [19] > 100 µM

CCN(CC)CCC1CCCCN1CC(=O)N1c2ccccc2NC(=O)CC1C (centres undefined)
inactive: [1] > 100 µM | [2] > 100 µM | [3] > 100 µM | [4] > 100 µM | [5] > 100 µM | [6] > 100 µM | [7] > 100 µM | [8] > 100 µM | [9] > 100 µM | [20] > 100 µM | [10] > 100 µM | [11] > 100 µM | [12] > 100 µM | [13] > 100 µM | [14] > 100 µM | [15] > 100 µM | [16] > 100 µM | [18] > 100 µM | [19] > 100 µM

COC(=O)CCC(NC(=O)OC(C)(C)C)C(=O)NC(Cc1ccc(NC(=O)CCCC(C)=O)cc1)C(=O)NC(CCC(=O)OC)C(=O)OC (centres undefined)
inactive: [1] > 100 µM | [2] > 100 µM | [4] > 100 µM | [5] > 100 µM | [6] > 100 µM | [7] > 100 µM | [8] > 100 µM | [9] > 100 µM | [20] > 100 µM | [10] > 100 µM | [11] > 100 µM | [12] > 100 µM | [13] > 100 µM | [14] > 100 µM | [15] > 100 µM | [16] > 100 µM | [17] > 100 µM | [18] > 100 µM | [19] > 100 µM

CCN(CC)CCC1CCCCN1CC(=O)N1c2ccccc2NC(=O)c2ccccc21 (centres undefined)
inactive: [1] > 100 µM | [2] > 100 µM | [3] > 100 µM | [4] > 100 µM | [5] > 100 µM | [6] > 100 µM | [7] > 100 µM | [8] > 100 µM | [9] > 100 µM | [20] > 100 µM | [10] > 100 µM | [11] > 100 µM | [12] > 100 µM | [13] > 100 µM | [14] > 100 µM | [15] > 100 µM | [16] > 100 µM | [18] > 100 µM | [19] > 100 µM

CC(=O)OC1CC2C(=O)C(=O)C1(C)C2(C)C (centres undefined)
inactive: [1] > 100 µM | [2] > 100 µM | [3] > 10 µM | [4] > 100 µM | [5] > 100 µM | [7] > 100 µM | [8] > 100 µM | [9] > 100 µM | [20] > 100 µM | [10] > 100 µM | [11] > 100 µM | [12] > 100 µM | [13] > 100 µM | [15] > 100 µM | [16] > 100 µM | [17] > 100 µM | [18] > 100 µM | [19] > 100 µM
